Test results as given in patent publication US11708348B2, “Protease inhibitors for treatment of coronavirus infections” (The Scripps Research Institute, priority 2021, dated 2023).

Tested on: SARS-CoV-2 strain USA-WA1/2020
Assay: microbe, parasite or virus in culture
Assay type: cell-based
Details: HeLa-ACE2 cells, SARS-CoV-2 infection, 24 h; class symbols; read-out: EC50, uM (Hela)

SMILES | EC50 [µM]
COc1cccc2[nH]c(C(=O)N[C@@H](CC(C)C)C(=O)N[C@@H](C[C@@H]3CCNC3=O)C(=O)COc3c(F)cccc3F)cc12 [Compound 7, N-((S)-1-(((S)-4-(2,6-difluorophenoxy)-3-oxo-1-((S)-2-oxopyrrolidin-3-yl)butan-2-yl)amino)-4-methyl-1-oxopentan-2-yl)-4-methoxy-1H-indole-2-carboxamide] | 0.2 to 0.5

Same assay, conditions: Severe acute respiratory syndrome coronavirus 2, HeLa-ACE2, 24 h, HeLa-ACE2 cells, SARS-CoV-2 infection, 24 h; cells given as a bound; read-out: EC50, uM (Hela)

SMILES | EC50 [µM]
Cc1ccccc1NC(=O)C(=O)N(C)[C@@H](CC(C)C)C(=O)N[C@@H](C[C@@H]1CCNC1=O)C(=O)COc1c(F)c(F)cc(F)c1F [Compound 105, N1-methyl-N1-((S)-4-methyl-1-oxo-1-(((S)-3-oxo-1-((S)-2-oxopyrrolidin-3-yl)-4-(2,3,5,6-tetrafluorophenoxy)butan-2-yl)amino)pentan-2-yl)-N2-(o-tolyl)oxalamide] | > 1
O=C(Nc1ccccc1F)C(=O)N1CCC[C@@H](C(=O)N[C@@H](C[C@@H]2CCNC2=O)C(=O)COc2c(F)c(F)cc(F)c2F)C1 [Compound 95, (R)-1-(2-((2-fluorophenyl)amino)-2-oxoacetyl)-N-((S)-3-oxo-1-((S)-2-oxopyrrolidin-3-yl)-4-(2,3,5,6-tetrafluorophenoxy)butan-2-yl)piperidine-3-carboxamide] | > 1

Same assay, conditions: Severe acute respiratory syndrome coronavirus 2, HeLa-ACE2, 24 h, HeLa-ACE2 cells, SARS-CoV-2 infection, 24 h; class symbols; read-out: EC50, uM (Hela)

SMILES | EC50 [µM]
CC1(NC(=O)C(=O)N[C@@H](Cc2ccc(F)cc2)C(=O)N[C@@H](C[C@@H]2CCNC2=O)C(=O)COC(F)(F)F)CC1 [Compound 250, N1-((S)-3-(4-fluorophenyl)-1-oxo-1-(((S)-3-oxo-1-((S)-2-oxopyrrolidin-3-yl)-4-(trifluoromethoxy)butan-2-yl)amino)propan-2-yl)-N2-(1-methylcyclopropyl)-oxalamide] | < 0.05
Cc1ccccc1NC(=O)C(=O)N[C@@H](CC1CC1)C(=O)N[C@@H](C[C@@H]1CCNC1=O)C(=O)COc1c(F)c(F)cc(F)c1F [Compound 116, N1-((S)-3-cyclopropyl-1-oxo-1-(((S)-3-oxo-1-((S)-2-oxopyrrolidin-3-yl)-4-(2,3,5,6-tetrafluorophenoxy)butan-2-yl)amino)propan-2-yl)-N2-(o-tolyl)oxalamide] | < 0.05
CC(C)C[C@H](NC(=O)C(=O)N[C@H]1CCCOC1)C(=O)N[C@@H](C[C@@H]1CCNC1=O)C(=O)COc1c(F)c(F)cc(F)c1F [Compound 103, N1-((S)-4-methyl-1-oxo-1-(((S)-3-oxo-1-((S)-2-oxopyrrolidin-3-yl)-4-(2,3,5,6-tetrafluorophenoxy)butan-2-yl)amino)pentan-2-yl)-N2-((S)-tetrahydro-2H-pyran-3-yl)oxalamide] | 0.05 to 0.2
CC(C)C(F)(F)C(NC(=O)C(=O)Nc1ccccc1F)C(=O)N[C@@H](C[C@@H]1CCNC1=O)C(=O)COc1c(F)c(F)cc(F)c1F (stereo partly drawn) [Compound 76, N1-(3,3-difluoro-4-methyl-1-oxo-1-(((S)-3-oxo-1-((S)-2-oxopyrrolidin-3-yl)-4-(2,3,5,6-tetrafluorophenoxy)butan-2-yl)amino)pentan-2-yl)-N2-(2-fluorophenyl)oxalamide] | 0.05 to 0.2
Cc1cc(C(=O)N[C@H](C(=O)N[C@@H](CC(C)C)C(=O)N[C@@H](C[C@@H]2CCNC2=O)C(=O)COc2c(F)c(F)cc(F)c2F)C(C)C)no1 [Compound 115, 5-methyl-N-((S)-3-methyl-1-(((S)-4-methyl-1-oxo-1-(((S)-3-oxo-1-((S)-2-oxopyrrolidin-3-yl)-4-(2,3,5,6-tetrafluorophenoxy)butan-2-yl)amino)pentan-2-yl)amino)-1-oxobutan-2-yl)isoxazole-3-carboxamide] | 0.2 to 0.5
CC(C)C[C@H](NC(=O)C(=O)NC1(C)CC1)C(=O)N[C@@H](C[C@@H]1CCCNC1=O)C(=O)COC(F)(F)F [Compound 245, N1-((S)-4-methyl-1-oxo-1-(((S)-3-oxo-1-((S)-2-oxopiperidin-3-yl)-4-(trifluoromethoxy)butan-2-yl)amino)pentan-2-yl)-N2-(1-methylcyclo-propyl)oxalamide] | < 0.05
CC(C)C[C@H](NC(=O)C(=O)Nc1cccc(Cl)c1)C(=O)N[C@@H](C[C@@H]1CCNC1=O)C(=O)COc1c(F)c(F)cc(F)c1F [Compound 52, N1-(3-chlorophenyl)-N2-((S)-4-methyl-1-oxo-1-(((S)-3-oxo-1-((S)-2-oxopyrrolidin-3-yl)-4-(2,3,5,6-tetrafluorophenoxy)butan-2-yl)amino)pentan-2-yl)oxalamide] | 0.05 to 0.2
COc1ccc(NC(=O)C(=O)N[C@@H](CC(C)C)C(=O)N[C@@H](C[C@@H]2CCNC2=O)C(=O)COc2c(F)c(F)cc(F)c2F)cc1 [Compound 121, N1-(4-methoxyphenyl)-N2-((S)-4-methyl-1-oxo-1-(((S)-3-oxo-1-((S)-2-oxopyrrolidin-3-yl)-4-(2,3,5,6-tetrafluorophenoxy)butan-2-yl)amino)pentan-2-yl)oxalamide] | < 0.05
CC(C)C[C@H](NC(=O)c1cc2cnccc2[nH]1)C(=O)N[C@@H](C[C@@H]1CCNC1=O)C(=O)COC(F)(F)F [Compound 200, N-((S)-4-methyl-1-oxo-1-(((S)-3-oxo-1-((S)-2-oxopyrrolidin-3-yl)-4-(trifluoromethoxy)butan-2-yl)amino)pentan-2-yl)-1H-pyrrolo[3,2-c]pyridine-2-carboxamide] | 0.2 to 0.5
CC(C)C[C@H](NC(=O)C(=O)Nc1ccc(Cl)cc1)C(=O)N[C@@H](C[C@@H]1CCNC1=O)C(=O)COc1c(F)c(F)cc(F)c1F [Compound 39, N1-(4-chlorophenyl)-N2-((S)-4-methyl-1-oxo-1-(((S)-3-oxo-1-((S)-2-oxopyrrolidin-3-yl)-4-(2,3,5,6-tetrafluorophenoxy)butan-2-yl)amino)pentan-2-yl)oxalamide] | 0.05 to 0.2
CC[C@H](NC(=O)C1CC2(CC2)CO1)C(=O)N[C@@H](C[C@@H]1CCNC1=O)C(=O)COC(F)(F)F (stereo partly drawn) [Compound 294, N-((S)-1-oxo-1-(((S)-3-oxo-1-((S)-2-oxopyrrolidin-3-yl)-4-(trifluoromethoxy)butan-2-yl)amino)butan-2-yl)-5-oxaspiro[2.4]heptane-6-carboxamide] | < 0.05
CC1(C)[C@@H]2[C@@H](C(=O)N[C@@H](C[C@@H]3CCNC3=O)C(=O)COC(F)(F)F)N(C(=O)[C@H]3COCCO3)C[C@@H]21 [Compound 306, (1R,2S,5S)-3-((R)-1,4-dioxane-2-carbonyl)-6,6-dimethyl-N-((S)-3-oxo-1-((S)-2-oxopyrrolidin-3-yl)-4-(trifluoromethoxy)butan-2-yl)-3-azabicyclo[3.1.0]-hexane-2-carboxamide] | 0.05 to 0.2

Same assay, conditions: Severe acute respiratory syndrome coronavirus 2, HeLa-ACE2, 24 h, HeLa-ACE2 cells, SARS-CoV-2 infection, 24 h; read-out: EC50, uM (Hela)

SMILES | EC50 [µM]
CC1(C)[C@@H]2[C@@H](C(=O)N[C@@H](C[C@@H]3CCNC3=O)C(=O)COC(F)(F)F)N(C(=O)[C@H](O)c3ccccc3)C[C@@H]21 [Compound 413, (1R,2S,5S)-3-((R)-2-hydroxy-2-phenylacetyl)-6,6-dimethyl-N-((S)-3-oxo-1-((S)-2-oxopyrrolidin-3-yl)-4-(trifluoromethoxy)butan-2-yl)-3-azabicyclo[3.1.0]-hexane-2-carboxamide] | < 0.05
COC1(C(=O)N2CC3(CC3)C[C@H]2C(=O)N[C@@H](C[C@@H]2CCNC2=O)C(=O)COC(F)(F)F)CCC(F)(F)CC1 [Compound 646, (S)-5-(4,4-difluoro-1-methoxycyclohexane-1-carbonyl)-N-((S)-3-oxo-1-((S)-2-oxopyrrolidin-3-yl)-4-(trifluoromethoxy)butan-2-yl)-5-azaspiro[2.4]heptane-6-carboxamide] | < 0.05
CC(C)(F)C(=O)N1CC2(CC2)C[C@H]1C(=O)N[C@@H](C[C@@H]1CCNC1=O)C(=O)COC(F)(F)F [Compound 735, (S)-5-(2-fluoro-2-methylpropanoyl)-N-((S)-3-oxo-1-((S)-2-oxopyrrolidin-3-yl)-4-(trifluoromethoxy)butan-2-yl)-5-azaspiro[2.4]heptane-6-carboxamide] | < 0.05
O=C1NCC[C@H]1C[C@H](NC(=O)[C@@H]1CC2(CC2)CN1C(=O)C(O)c1cccc(F)c1)C(=O)COC(F)(F)F (stereo partly drawn) [Compound 405, (6S)-5-(2-(3-fluorophenyl)-2-hydroxyacetyl)-N-((S)-3-oxo-1-((S)-2-oxopyrrolidin-3-yl)-4-(trifluoromethoxy)butan-2-yl)-5-azaspiro[2.4]heptane-6-carboxamide] | 0.05 to 0.2
CC(C)[C@@H](O)C(=O)N1[C@H](C(=O)N[C@@H](C[C@@H]2CCNC2=O)C(=O)COC(F)(F)F)C[C@@]2(C)C[C@@H]12 [Compound 452, (1R,3S,5R)-2-((R)-2-hydroxy-3-methylbutanoyl)-5-methyl-N-((S)-3-oxo-1-((S)-2-oxopyrrolidin-3-yl)-4-(trifluoromethoxy)butan-2-yl)-2-azabicyclo[3.1.0]hexane-3-carboxamide] | 0.05 to 0.2
[2H]C([2H])([2H])C([2H])(C([2H])([2H])[2H])C([2H])([2H])C(=O)N1CC2(CC2)C[C@H]1C(=O)N[C@@H](C[C@@H]1CCNC1=O)C(=O)COC(F)(F)F [Compound 737, (S)-5-(3-(methyl-d3)butanoyl-2,2,3,4,4,4-d6)-N-((S)-3-oxo-1-((S)-2-oxopyrrolidin-3-yl)-4-(trifluoromethoxy)butan-2-yl)-5-azaspiro[2.4]heptane-6-carboxamide] | < 0.05
CC(C)(C)NC(=O)C(=O)N1[C@@H]2C[C@@H]2C[C@H]1C(=O)N[C@@H](C[C@@H]1CCNC1=O)C(=O)COC(F)(F)F [Compound 521] | 0.2 to 0.5

Same assay, conditions: Severe acute respiratory syndrome coronavirus 2, HeLa-ACE2, 24 h; read-out: EC50, uM (Hela)

SMILES | EC50 [µM]
CC(C)C[C@H](NC(=O)C(=O)Nc1ccccc1F)C(=O)N[C@@H](C[C@@H]1CCNC1=O)C(=O)COP(=O)(c1ccccc1)c1ccccc1 [Compound 125, (S)-3-((S)-2-(2-((2-fluorophenyl)amino)-2-oxoacetamido)-4-methylpentanamido)-2-oxo-4-((S)-2-oxopyrrolidin-3-yl)butyl diphenylphosphinate] | < 0.05
